In patent US10144706B2 (BRISTOL-MYERS SQUIBB COMPANY, priority 2016, dated 2018):

biological target: T1, PD-1/PD-L1 interaction (PD-1-Ig / PD-L1-His) (Homo sapiens, UniProt Q9NZQ7); experiment: PD-1/PD-L1 Homogenous Time-Resolved Fluorescence (HTRF) binding assay; details: IC50 range class; PD-L1-His 10 nM, PD-1-Ig 20 nM; read-out: Range or IC50
T1 construct: hPDL1(18-239)-TVMV-His; TVMV protease site linker (C); made in house; host or cells: HEK293T
Procedure, shortened: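 Human PD-L1-His (10 nM final) was pre-incubated with inhibitor for 15 min, then PD-1-Ig (20 nM final) was added for a further 15 min in dPBS with 0.1% BSA and 0.05% Tween-20. Binding was detected by HTRF using Eu-cryptate anti-Ig (1 nM) and APC anti-His (20 nM).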

T1 sequence (Q9NZQ7 with tags, fused parts or gaps): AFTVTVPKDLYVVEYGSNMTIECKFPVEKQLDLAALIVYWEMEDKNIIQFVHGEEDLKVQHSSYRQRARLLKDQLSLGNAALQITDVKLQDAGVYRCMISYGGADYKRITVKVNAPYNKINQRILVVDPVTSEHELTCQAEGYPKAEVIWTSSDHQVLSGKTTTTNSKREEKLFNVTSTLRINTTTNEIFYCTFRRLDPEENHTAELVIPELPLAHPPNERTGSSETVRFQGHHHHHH

`Cc1c(COc2cc(OCc3cncc(C#N)c3)c(CN3CCOC[C@@H]3C(=O)O)cc2Cl)cccc1-c1cccc(COc2cc(OCc3cncc(C#N)c3)c(CN3CCOC[C@@H]3C(=O)O)cc2Cl)c1C` [Example 40370] and `Cc1c(COc2cc(OCc3cncc(C#N)c3)c(CO)cc2Cl)cccc1-c1cccc(COc2cc(OCc3cncc(C#N)c3)c(CN3CCCC[C@H]3C(=O)O)cc2Cl)c1C` [Example 2120, (S)-1-(5-chloro-4-((3′-((2-chloro-5-((5-cyanopyridin-3-yl)methoxy)-4-(hydroxymethyl)phenoxy)methyl)-2,2′-dimethyl-[1,1′-biphenyl]-3-yl)methoxy)-2-((5-cyanopyridin-3-yl)methoxy)benzyl)piperidine-2-carboxylic acid] fall in the same range of IC50: 0.04 to 20 nM for the first, 0.04 to 20 nM for the second.

`CO[C@H](C)[C@H](NCc1cc(Cl)c(OCc2cccc(-c3cccc(COc4cc(OCc5cncc(C#N)c5)c(CN[C@H](C(=O)O)[C@@H](C)OC)cc4Cl)c3C)c2C)cc1OCc1cncc(C#N)c1)C(=O)O` [Example 40940] and `Cc1c(COc2cc(OCc3cncc(C#N)c3)c(CN[C@H](C(=O)O)[C@@H](C)OC(C)(C)C)cc2Cl)cccc1-c1cccc(COc2cc(OCc3cncc(C#N)c3)c(CN[C@H](C(=O)O)[C@@H](C)OC(C)(C)C)cc2Cl)c1C` [Example 40930] fall in the same range of IC50: 0.04 to 20 nM for the first, 0.04 to 20 nM for the second.

First: Cc1cc(CN2CCCC[C@H]2C(=O)O)ccc1OCc1cccc(-c2cccc(COc3ccc(CN4CCCC[C@H]4C(=O)O)cc3C)c2C)c1C [Example 5500, (2S,2′S)-1,1′-(((((2,2′-dimethyl-[1,1′-biphenyl]-3,3′-diyl)bis(methylene))bis(oxy))bis(3-methyl-4,1-phenylene))bis(methylene))bis(piperidine-2-carboxylic acid)]
Second: Cc1c(COc2cc(OCc3cncc(C#N)c3)c(CO)cc2Cl)cccc1-c1cccc(COc2cc(OCc3cncc(C#N)c3)c(CN3CCCC(C(=O)O)C3)cc2Cl)c1C (stereo not drawn) [Example 50110]
The IC50 of the first is higher: 90.1 to 1000 nM for the first, 0.04 to 20 nM for the second. The second is the more potent here.

`Cc1c(COc2cc(OCc3cncc(C#N)c3)c(CNC(CCO)C(=O)O)cc2Cl)cccc1-c1cccc(COc2cc(OCc3cncc(C#N)c3)c(CN(CC3CC3)C(CCO)C(=O)O)cc2Cl)c1C` (stereo not drawn) [Example 40840] and `Cc1c(COc2cc(OCc3cncc(C#N)c3)c(CN(CC3CC3)C(CCO)C(=O)O)cc2Cl)cccc1-c1cccc(COc2cc(OCc3cncc(C#N)c3)c(CN(CC3CC3)C(CCO)C(=O)O)cc2Cl)c1C` (stereo not drawn) [Example 40830] fall in the same range of IC50: 0.04 to 20 nM for the first, 0.04 to 20 nM for the second.

`Cc1c(OCCCN2CCC(O)(CC(=O)O)C2)cccc1-c1cccc(OCCCN2CCC(O)(CC(=O)O)C2)c1Cl` (stereo not drawn) [Example 1001, 2,2′-((((2-chloro-2′-methyl-[1,1′-biphenyl]-3,3′-diyl)bis(oxy))bis(propane-3,1-diyl))bis(3-hydroxypyrrolidine-1,3-diyl))diacetic acid] and `CC(=O)N1CCN(CCCOc2cccc(-c3cccc(OCCCN4CC[C@@H](O)C4)c3C)c2C)CC1` [Example 2001, (R)-1-(4-(3-((3′-(3-(3-hydroxypyrrolidin-1-yl)propoxy)-2,2′-dimethyl-[1,1′-biphenyl]-3-yl)oxy)propyl)piperazin-1-yl)ethan-1-one] fall in the same range of IC50: 20.1 to 90 nM for the first, 20.1 to 90 nM for the second.

Compared with `Cc1c(OCCCN(C)CCOCCN(C)CCCOc2cccc(-c3cccc(OCCCN4CC[C@@H](O)C4)c3C)c2C)cccc1-c1cccc(OCCCN2CC[C@@H](O)C2)c1C` [Example 2095, (3R,3′R)-1,1′-(((((((oxybis(ethane-2,1-diyl))bis(methylazanediyl))bis(propane-3,1-diyl))bis(oxy))bis(2,2′-dimethyl-[1,1′-biphenyl]-3′,3-diyl))bis(oxy))bis(propane-3,1-diyl))bis(pyrrolidin-3-ol)], `Cc1c(OCCCN2CCC[C@@H](O)C2)cccc1-c1cccc(OCCCN2CC[C@@H](O)C2)c1C` [Example 2114, (R)-1-(3-((3′-(3-((R)-3-hydroxypyrrolidin-1-yl)propoxy)-2,2′-dimethyl-[1,1′-biphenyl]-3-yl)oxy)propyl)piperidin-3-ol] is higher in IC50: 20.1 to 90 nM for the first, 90.1 to 1000 nM for the second.

`Cc1c(OCCCNCCO)cccc1-c1cccc(OCCCN2CC[C@@H](O)C2)c1C` [Example 2014, (R)-1-(3-((3′-(3-((2-hydroxyethyl)amino)propoxy)-2,2′-dimethyl-[1,1′-biphenyl]-3-yl)oxy)propyl)pyrrolidin-3-ol] and `Cc1c(OCCCN(C)CCO)cccc1-c1cccc(OCCCN2CC[C@@H](O)C2)c1C` [Example 2034, (R)-1-(3-((3′-(3-((2-hydroxyethyl)(methyl)amino)propoxy)-2,2′-dimethyl-[1,1′-biphenyl]-3-yl)oxy)propyl)pyrrolidin-3-ol] fall in the same range of IC50: 20.1 to 90 nM for the first, 20.1 to 90 nM for the second.

Compared with `Cc1ccn(CCNCCCOc2cccc(-c3cccc(OCCCN4CC[C@@H](O)C4)c3C)c2C)n1` [Example 2009, (R)-1-(3-((2,2′-dimethyl-3′-(3-((2-(3-methyl-1H-pyrazol-1-yl)ethyl)amino)propoxy)-[1,1′-biphenyl]-3-yl)oxy)propyl)pyrrolidin-3-ol], `Cc1c(OCCCN[C@@H](CO)Cc2ncn(C)c2Cl)cccc1-c1cccc(OCCCN2CC[C@@H](O)C2)c1C` [Example 2071, (R)-1-(3-((3′-(3-(((R)-1-(5-chloro-1-methyl-1H-imidazol-4-yl)-3-hydroxypropan-2-yl)amino)propoxy)-2,2′-dimethyl-[1,1′-biphenyl]-3-yl)oxy)propyl)pyrrolidin-3-ol] is higher in IC50: 20.1 to 90 nM for the first, 90.1 to 1000 nM for the second.

`Cc1c(COc2cc(OCc3cncc(C#N)c3)c(CNC(CCO)C(=O)O)cc2Cl)cccc1-c1cccc(COc2cc(OCc3cncc(C#N)c3)c(CNC(CCO)C(=O)O)cc2Cl)c1C` (stereo not drawn) [Example 40270] and `Cc1c(COc2cc(OCc3cncc(C#N)c3)c(CNC[C@H](C)C(=O)O)cc2Cl)cccc1-c1cccc(COc2cc(OCc3cncc(C#N)c3)c(CNC[C@H](C)C(=O)O)cc2Cl)c1C` [Example 40500] fall in the same range of IC50: 0.04 to 20 nM for the first, 0.04 to 20 nM for the second.

First: Cc1c(OCCCN2CC[C@@H](O)C2)cccc1-c1cccc(OCc2cccc(N)c2)c1C [Example 3033, (R)-1-(3-((3′-((3-aminobenzyl)oxy)-2,2′-dimethyl-[1,1′-biphenyl]-3-yl)oxy)propyl)pyrrolidin-3-ol]
Second: Cc1c(OCCCN[C@@H](Cc2cccnc2)C(=O)O)cccc1-c1cccc(OCCCN2CC[C@@H](O)C2)c1C [Example 2117, (S)-2-((3-((3′-(3-((R)-3-hydroxypyrrolidin-1-yl)propoxy)-2,2′-dimethyl-[1,1′-biphenyl]-3-yl)oxy)propyl)amino)-3-(pyridin-3-yl)propanoic acid]
The IC50 of the first is higher: 1000 to 10000 nM for the first, 90.1 to 1000 nM for the second. The second is the more potent here.

`CCC[C@@H](C(=O)O)N(C)Cc1cc(Cl)c(OCc2cccc(-c3cccc(COc4cc(OCc5ccc(-n6cccn6)nc5)c(CN(C)[C@@H](CCC)C(=O)O)cc4Cl)c3C)c2C)cc1OCc1ccc(-n2cccn2)nc1` [Example 5026, (2S,2′S)-2,2′-((((((2,2′-dimethyl-[1,1′-biphenyl]-3,3′-diyl)bis(methylene))bis(oxy))bis(2-((6-(1H-pyrazol-1-yl)pyridin-3-yl)methoxy)-5-chloro-4,1-phenylene))bis(methylene))bis(methylazanediyl))dipentanoic acid] and `Cc1c(COc2cc(OCc3ccc(-n4cccn4)nc3)c(CNC(C)(CO)CO)cc2Cl)cccc1-c1cccc(COc2cc(OCc3ccc(-n4cccn4)nc3)c(CNC(C)(CO)CO)cc2Cl)c1C` [Example 5020, 2,2′-((((((2,2′-dimethyl-[1,1′-biphenyl]-3,3′-diyl)bis(methylene))bis(oxy))bis(2-((6-(1H-pyrazol-1-yl)pyridin-3-yl)methoxy)-5-chloro-4,1-phenylene))bis(methylene))bis(azanediyl))bis(2-methylpropane-1,3-diol)] fall in the same range of IC50: 0.04 to 20 nM for the first, 0.04 to 20 nM for the second.

Compared with `Cc1c(OCCCN(CCc2ccccn2)C[C@H](O)CO)cccc1-c1cccc(OCCCN(CCc2ccccn2)C[C@H](O)CO)c1C` [Example 2101, (2S,2′S)-3,3′-((((2,2′-dimethyl-[1,1′-biphenyl]-3,3′-diyl)bis(oxy))bis(propane-3,1-diyl))bis((2-(pyridin-2-yl)ethyl)azanediyl))bis(propane-1,2-diol)], `CCCN(Cc1cc(Cl)c(OCc2cccc(-c3cccc(COc4cc(OCc5cncc(C#N)c5)c(CN(CCC)[C@@H](CCO)C(=O)O)cc4Cl)c3C)c2C)cc1OCc1cncc(C#N)c1)[C@@H](CCO)C(=O)O` [Example 40750] is lower in IC50: 20.1 to 90 nM for the first, 0.04 to 20 nM for the second. The second is the more potent here.

First: N#Cc1cncc(COc2cc(OCc3cccc(-c4cccc(COc5cc(OCc6cncc(C#N)c6)c(CN6CCCC[C@H]6C(=O)O)cc5Cl)c4)c3)c(Cl)cc2CO)c1 [Example 50020]
Second: CC(CO)(NCc1cc(Cl)c(OCc2cccc(-c3cccc(COc4cc(OCc5cncc(C#N)c5)c(CO)cc4Cl)c3Cl)c2Cl)cc1OCc1cncc(C#N)c1)C(=O)O (stereo not drawn) [Example 50380]
The IC50 of the first is higher: 20.1 to 90 nM for the first, 0.04 to 20 nM for the second.

With `COc1cc(OCc2cccc(-c3cccc(COc4cc(OC)c(CNC(CO)CO)cc4Cl)c3C)c2C)c(Cl)cc1CNC(CO)CO` [Example 2122, 2,2′-((((((2,2′-dimethyl-[1,1′-biphenyl]-3,3′-diyl)bis(methylene))bis(oxy))bis(5-chloro-2-methoxy-4,1-phenylene))bis(methylene))bis(azanediyl))bis(propane-1,3-diol)] the IC50 was 0.04 to 20 nM.

same assay, conditions: numeric IC50; PD-L1-His 10 nM, PD-1-Ig 20 nM; read-out: Range or IC50

Compared with `CC(=O)N[C@@H]1CCN(CCCOc2cccc(-c3cccc(OCCCN4CC[C@@H](O)C4)c3C)c2C)C1` [Example 2018, N—((R)-1-(3-((3′-(3-((R)-3-hydroxypyrrolidin-1-yl)propoxy)-2,2′-dimethyl-[1,1′-biphenyl]-3-yl)oxy)propyl)pyrrolidin-3-yl)acetamide], `Cc1c(OCCCN(Cc2ccccn2)Cc2ccccn2)cccc1-c1cccc(OCCCN2CC[C@@H](O)C2)c1C` [Example 2056, (R)-1-(3-((3′-(3-(bis(pyridin-2-ylmethyl)amino)propoxy)-2,2′-dimethyl-[1,1′-biphenyl]-3-yl)oxy)propyl)pyrrolidin-3-ol] is 46-fold higher in IC50: 69 nM for the first, 3180 nM for the second. The first is the more potent here.

`Cc1c(COc2cc(OCc3cncc(C#N)c3)c(CNC(C)(CO)C(=O)O)cc2Cl)cccc1-c1cccc(COc2cc(OCc3cncc(C#N)c3)c(CNC(C)(CO)C(=O)O)cc2Cl)c1C` (stereo not drawn) [Example 40210] showed an IC50 of 1.1 nM.
